Three compounds from patent publication US20030224978A1, “Compounds and methods for modulating apoptosis” (McGill University, priority 1996, published 2003) can be followed below.

For orientation: IC50 means the concentration that gives 50% inhibition. The inhibition is the relative decrease from the control value, in per cent. Usually EC50 stands for the concentration that produces a half-maximal response. The low end stands for an effect from little substance, the high end for a need for much substance.

In one data set the test system is SKOV3 cells. Nature of the data set: Disruption of human ovarian cancer cell (SKOV3) adhesion. In kind it is cell-based. Conditions: 0.01-1 mg/mL, up to 48 hours. The text has this:
Within one representative cell adhesion assay, the addition of a modulating agent to cells that express a cadherin results in disruption of cell adhesion. A “cadherin-expressing cell,” as used herein, may be any type of cell that expresses at least one cadherin on the cell surface at a detectable level, using standard techniques such as immunocytochemical protocols (Blaschuk and Farookhi, Dev. Biol. 136:564-567, 1989). Cadherin-expressing cells include endothelial (e.g., bovine pulmonary artery endothelial cells), epithelial and/or cancer cells (e.g., the human ovarian cancer cell line SKOV3 (ATCC #HTB-77)). For example, such cells may be plated under standard conditions that permit cell adhesion in the presence and absence of modulating agent (e.g., 500 μg/mL). Disruption of cell adhesion may be determined visually within 24 hours, by observing retraction of the cells from one another.
The human ovarian cancer cell line SKOV3 (ATCC #HTB-77) expresses N-cadherin. SKOV3 cells were cultured in a modified MEM-based media containing 10% FCS. Cells were grown in T-250 culture flasks and maintained by periodic subculturing. Cyclic peptides were tested on cells grown in individual wells of 96-well culture dishes (surface area of each well was 0.32 cm^2). Cells were harvested from flasks and seeded at a density of 50,000 cells per well in 0.1 mL media containing the cyclic peptides at concentrations of 1, 0.1, or 0.01 mg/mL, or in the absence of cyclic peptide. Media control wells were also established. Cultures were evaluated periodically by microscopic examination under both bright field and phase contrast conditions. Cultures were maintained for 48 hours.

For the next data set, the system named is HMVEC. In kind it is cell-based, human. Conditions: 3 h. The method, then: (§1) N-Ac-CHAVC-NH2 (SEQ ID NO:10) and the control peptide N-Ac-CHGVC-NH2 (SEQ ID NO:20) were evaluated for possible cytotoxic effects on human microvascular endothelial (HMVEC; Clonetics), human umbilical vein endothelial (HUVEC; ATCC #CRL-1730), IAFp2 (human fibroblast cell line; Institute Armand-Frapier, Montreal, Quebec), WI-38 (human fibroblast cell line; ATCC #CCL-75), MDA-MB231 (human breast cancer cell line; ATCC #HTB-26), and PC-3 (human prostate cancer cell line; ATCC #CRL-1435) cells utilizing the MTT assay (Plumb et al., Cancer Res. 49:4435-4440, 1989). Neither of the peptides was cytotoxic at concentrations up to and including 100 μM. Similarly, neither of the peptides was capable of inhibiting the proliferation of the above cell lines at concentrations up to 100 μM, as judged by ^3H-thymidine incorporation assays.

Another data set concerns IAFp2. In kind it is cell-based, human. Conditions: 3 h. Here is the method: as §1
Data set [1] has as its system PC-3. The data set is classed as cell-based, human. Conditions: 3 h. Here is the method: as §1
Another data set relates to WI-38. The data set is classed as cell-based, human. Conditions: 3 h. Here is the method:
as §1

Data set [2] can be described thus: in vitro. The data set is classed as cell-based. Conditions: human. The procedure, abridged: (§2)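 Cytotoxicity assessed by MTT assay and proliferation by ³H-thymidine incorporation, with peptides tested at concentrations up to 100 μM.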
The nature of data set [3]: in vitro. The data set is classed as cell-based. Conditions: human. A digest of the protocol:
as §2
The source holds these as a separate data set.

A short description of data set [4]: in vitro. The data set is classed as cell-based. Conditions: human. A digest of the protocol: as §2
This is another data set of the same source.

The nature of data set [5]: in vitro. The data set is classed as cell-based. The conditions noted are these: human. The procedure, abridged:
as §2
This is another data set of the same source.

For another data set, the system named is MDA-MB231. The data set is classed as cell-based. The conditions noted are these: human. The method, then: as §1
Data set [6] deals with PC-3. In kind it is cell-based. Conditions: human. The method, then:
as §1

The next data set addresses T1, chick N-cadherin (Gallus gallus, UniProt P10288).
T1 construct: expressed in transfected cells; host or cells: 3T3 fibroblasts
T1 sequence (P10288 165-912): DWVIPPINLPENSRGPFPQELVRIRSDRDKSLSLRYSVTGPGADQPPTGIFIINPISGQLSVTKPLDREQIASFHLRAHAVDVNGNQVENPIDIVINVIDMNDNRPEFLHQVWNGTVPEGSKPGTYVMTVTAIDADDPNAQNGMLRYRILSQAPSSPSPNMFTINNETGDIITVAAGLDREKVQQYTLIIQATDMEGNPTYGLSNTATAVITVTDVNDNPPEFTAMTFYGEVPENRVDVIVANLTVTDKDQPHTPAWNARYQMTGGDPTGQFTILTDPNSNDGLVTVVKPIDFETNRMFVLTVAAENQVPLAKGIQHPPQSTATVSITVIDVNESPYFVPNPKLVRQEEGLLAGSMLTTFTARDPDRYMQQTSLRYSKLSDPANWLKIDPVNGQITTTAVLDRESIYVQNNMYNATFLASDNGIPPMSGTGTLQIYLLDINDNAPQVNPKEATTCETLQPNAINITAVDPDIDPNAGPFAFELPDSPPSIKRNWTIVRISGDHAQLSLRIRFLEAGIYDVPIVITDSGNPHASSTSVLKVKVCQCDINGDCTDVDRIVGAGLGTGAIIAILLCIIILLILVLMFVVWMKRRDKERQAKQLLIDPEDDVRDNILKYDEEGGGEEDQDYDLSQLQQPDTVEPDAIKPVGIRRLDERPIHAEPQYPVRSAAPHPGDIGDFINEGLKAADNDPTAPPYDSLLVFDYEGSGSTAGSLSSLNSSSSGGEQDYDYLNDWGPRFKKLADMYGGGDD
The data set is described as follows: N-cadherin dependent neurite outgrowth of rat cerebellar neurons on N-cadherin expressing 3T3 cells (Example 14). In kind it is cell-based. The conditions noted are these: for inhibition at 125 µg/mL: 125 μg/mL, 16-18 hours; for inhibitory activity on N-cadherin dependent neurite outgrowth, in words: Tables 8 and 9, 250 or 125 μg/mL. The method, then: (§3) Cell culture and neurite outgrowth assays. Co-cultures of cerebellar neurons on monolayers of control 3T3 cells and monolayers of transfected 3T3 cells that express physiological levels of chick N-cadherin or human L1 were established as previously described (Williams et al., Neuron 13:583-594, 1994). In brief, 80,000 3T3 cells (control and transfected) were plated into individual chambers of an eight-chamber tissue culture slide coated with polylysine and fibronectin and cultured in DMEM/10% FCS. After 24 hours, when confluent monolayers had formed, the medium was removed and 3000 cerebellar neurons isolated from post-natal day 2-3 rats were plated into each well in SATO media (Doherty et al., Nature 343:464-466, 1990) supplemented with 2% FCS. All of the test peptides were added immediately before the neurons as a 2×stock prepared in SATO/2% FCS. The co-cultures were maintained for 16-18 hours, at which time they were fixed and immunostained for GAP-43 which is present only in the neurons and delineates the neuritic processes. The mean length of the longest neurite per cell was measured for 150-200 neurons sampled in replicate cultures as previously described (Williams et al., Neuron 13:583-594, 1994). […] Dose-response curves were evaluated and the EC50 values determined.
Effects of cyclic HAV peptides on N-cadherin function. The ability of N-Ac-CHAVC-NH2 (SEQ ID NO:10; compound 1) to inhibit neurite outgrowth was initially tested. This cyclic peptide has the cadherin CAR sequence (HAV) and no flanking amino acid residues. Neurons were cultured on confluent monolayers of control (untransfected) and N-cadherin expressing 3T3 cells for 16-18 hours. The cells were then fixed and the length of the longest neurite on 150-200 neurons was determined by standard assay, as described above. FIG. 24 gives the mean neurite length in a representative experiment where cerebellar neurons have been cultured over control and N-cadherin expressing cells. In the absence of peptide, the mean length of the longest neurite per cell was approximately double on the N-cadherin expressing cells, as compared to 3T3 cells. This response requires N-cadherin function in both the neuron and transfected fibroblast.

The target in another data set is L1 (Homo sapiens, UniProt P32004). The data set is described as follows: L1 response: neurite outgrowth of rat cerebellar neurons on L1 expressing 3T3 cells (Example 14). The data set is classed as cell-based. On the set-up: expressed in transfected cells; host or cells: 3T3 cells (stably transfected). Conditions: 100 μg/mL, concentrations that substantially inhibited the N-cadherin response. Here is the method:
FIG. 26 is a bar graph illustrating the effects of the cyclic peptides N-Ac-CHAVDC-NH2 (SEQ ID NO:11), N-Ac-CHAVDIC-NH2 (SEQ ID NO:62) and N-Ac-[…]-NH2 (SEQ ID NO:63) on L1 function. Cerebellar neurons were cultured on monolayers of control 3T3 cells and L1 expressing 3T3 cells for 16-18 hours in control media (unshaded) or control media supplemented with peptides N-Ac-CHAVDC-NH2 (SEQ ID NO:11; diagonal rising right), N-Ac-CHAVDIC-NH2 (SEQ ID NO:62); diagonal cross hatch) or N-Ac-[…]-NH2 (SEQ ID NO:63; diagonal rising left) at a concentration of 100 μg/mL. The cultures were then fixed and neurite outgrowth determined by measuring the length of the longest neurite from a total of 150-200 neurons sampled in replicate cultures for each experimental condition. […] The results are pooled from three independent experiments, and the bars show the s.e.m.
as §3, with “The co-cultures were maintained for 16-18 hours, at which time they were fixed and immunostained for GAP-43 which is present only in the neurons and delineates the neuritic processes.” left out, “determined. […]” for “determined.”

Entries after “also recorded” stand apart in the source; their conditions may differ. Like-named read-outs stand apart in the source and are kept apart here. Positions of bridges follow the written chain, without caps; N, C: chain ends. Residues, ends and D or L forms follow the SMILES beside them.

L1, sequence (P32004 20-1257): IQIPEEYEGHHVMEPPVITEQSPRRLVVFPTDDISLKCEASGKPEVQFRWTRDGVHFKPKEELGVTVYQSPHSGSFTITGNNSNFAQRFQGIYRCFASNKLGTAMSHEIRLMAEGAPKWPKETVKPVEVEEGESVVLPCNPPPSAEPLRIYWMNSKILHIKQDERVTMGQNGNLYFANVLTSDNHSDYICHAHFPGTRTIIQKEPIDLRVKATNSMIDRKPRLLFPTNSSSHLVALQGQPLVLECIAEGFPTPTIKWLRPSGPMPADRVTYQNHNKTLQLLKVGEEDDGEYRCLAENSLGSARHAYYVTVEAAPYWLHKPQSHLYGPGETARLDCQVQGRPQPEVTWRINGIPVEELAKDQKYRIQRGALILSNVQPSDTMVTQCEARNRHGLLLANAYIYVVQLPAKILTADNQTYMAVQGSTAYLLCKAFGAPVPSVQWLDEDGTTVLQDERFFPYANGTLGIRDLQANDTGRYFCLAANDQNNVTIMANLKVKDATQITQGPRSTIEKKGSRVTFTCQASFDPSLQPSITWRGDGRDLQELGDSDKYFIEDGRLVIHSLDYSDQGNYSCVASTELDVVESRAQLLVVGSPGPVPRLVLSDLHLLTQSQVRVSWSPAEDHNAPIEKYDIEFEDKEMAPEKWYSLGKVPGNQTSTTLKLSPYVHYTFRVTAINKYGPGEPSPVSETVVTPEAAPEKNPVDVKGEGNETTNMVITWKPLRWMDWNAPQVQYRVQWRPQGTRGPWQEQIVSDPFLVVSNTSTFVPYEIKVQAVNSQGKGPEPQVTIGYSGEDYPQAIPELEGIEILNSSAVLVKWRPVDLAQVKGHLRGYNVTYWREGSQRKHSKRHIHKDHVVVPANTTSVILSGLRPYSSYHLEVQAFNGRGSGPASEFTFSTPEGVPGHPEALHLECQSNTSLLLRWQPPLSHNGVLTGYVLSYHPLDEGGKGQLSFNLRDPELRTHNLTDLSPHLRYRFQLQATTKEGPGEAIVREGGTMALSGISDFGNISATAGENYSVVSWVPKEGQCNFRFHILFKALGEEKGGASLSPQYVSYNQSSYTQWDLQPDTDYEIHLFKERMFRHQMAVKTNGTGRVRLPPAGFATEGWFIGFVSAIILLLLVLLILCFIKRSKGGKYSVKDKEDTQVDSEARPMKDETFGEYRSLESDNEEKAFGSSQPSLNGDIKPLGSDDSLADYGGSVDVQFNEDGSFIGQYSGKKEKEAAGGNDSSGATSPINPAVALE

As to `CC(=O)N[C@H]1CCCCNC(=O)C[C@@H](C(N)=O)NC(=O)[C@H](C(C)C)NC(=O)[C@H](C)NC(=O)[C@H](Cc2c[nH]cn2)NC1=O` (Ac-KHAVD-NH2; lactam 1-5 (inferred)), the “activity on SKOV3 cell adhesion” value in the data set on SKOV3 cells was “inactive”. The half-inhibitory concentration (IC50) with HMVEC, in the data set on IAFp2, with PC-3 [1], with WI-38, in the data set “in vitro [2]” and in “in vitro [3]” was greater than 100 µM throughout. Further, the IC50 in the data set “in vitro [4]”, in “in vitro [5]”, in the data set on MDA-MB231 and with PC-3 [6] was greater than 100 µM throughout.
`CC(=O)N[C@H]1CSSC[C@@H](C(N)=O)NC(=O)[C@H](CC(=O)O)NC(=O)[C@H](C(C)C)NC(=O)[C@H](C)NC(=O)[C@H](Cc2c[nH]cn2)NC1=O` [N-Ac-CHAVDC-NH2] (Ac-CHAVDC-NH2; disulfide 1-6) came in with an inhibition at 33 µg/mL against chick N-cadherin (NIH3T3, 33 μg/mL) of 28.5%. The compound further returned an inhibition at 125 µg/mL against chick N-cadherin (NIH3T3) of 77.1 ± 8.4%. Besides, the “inhibitory activity on N-cadherin dependent neurite outgrowth, in words” value against chick N-cadherin was “dramatically increased the inhibitory activity; also recorded: potent inhibitors of neurite outgrowth”. The “effect on L1 response (neurite outgrowth over L1 expressing 3T3 cells)” value at L1 is listed as “did not interfere with the ability of neurons to extend neurites over 3T3 cells expressing L1; also recorded: not inhibited”.
For the compound `CC[C@H](C)[C@@H]1NC(=O)[C@H](CC(=O)O)NC(=O)[C@H](C(C)C)NC(=O)[C@H](C)NC(=O)[C@H](Cc2c[nH]cn2)NC(=O)[C@@H](NC(C)=O)CSSC[C@@H](C(N)=O)NC1=O` [N-Ac-CHAVDIC-NH2] (Ac-CHAVDIC-NH2; disulfide 1-7), the inhibition at 125 µg/mL on chick N-cadherin (NIH3T3) was determined as 88.3 ± 7.5%. Besides, at chick N-cadherin, the “inhibitory activity on N-cadherin dependent neurite outgrowth, in words” value is “further increased activity; also recorded: potent inhibitors”. The EC50 at chick N-cadherin (from dose-response curve) was determined as 60 µM. Besides, the “effect on L1 response (neurite outgrowth over L1 expressing 3T3 cells)” value at L1 is reported as “did not interfere with the ability of neurons to extend neurites over 3T3 cells expressing L1; also recorded: not inhibited”.
